Values quoted from earlier work as cited in patent US20240066015A1, “TREATMENT OF PAIN ASSOCIATED WITH PARKINSON'S DISEASE” (BIAL-PORTELA & CA., S.A., priority 2021, published 2024).

Legend:
[1] = hot plate test
[2] = transdermal patch, patients with advanced-stage PD; trial not powered for statistical significance
[3] = patients with PD and end-of-dose motor fluctuations
[4] = in comparison with placebo, added to levodopa-based therapy
[5] = oral administration, peripheral metabolism by DDC and COMT
[6] = BIPARK-II trial and OPTIPARK study

CC(=O)C(=Cc1cc(O)c(O)c([N+](=O)[O-])c1)C(C)=O [nitecapone]
mediation of the analgesic effect [1]: not mediated through the CNS

CCCN(CCc1cccs1)[C@H]1CCc2c(O)cccc2C1 [rotigotine]
PD-associated chronic pain [2]: may improve

Cc1c(Cl)c(C)[n+]([O-])c(Cl)c1-c1noc(-c2cc(O)c(O)c([N+](=O)[O-])c2)n1 [opicapone]
OFF-time [3]: efficacious in reducing OFF-time | tolerability [3]: generally well tolerated | NMSS "Miscellaneous" domain effect compared with placebo (BIPARK-II trial): less than for that observed for placebo | NMSS "Miscellaneous" domain (includes pain as one aspect) [6]: positive signal | specific effect on pain [6]: no specific effect on pain was identifiable

C[C@H](NCc1ccc(OCc2cccc(F)c2)cc1)C(N)=O [Safinamide]
PDQ-39 pain-related items [4]: significantly improve two out of three | need for pain medication [4]: significantly reduce

N[C@@H](Cc1ccc(O)c(O)c1)C(=O)O [levodopa]
share of an oral dose that reaches the brain [5]: 1%
